According to patent publication US5849710A, “Substituted indolylmethylene-oxindole analogues as tyrosine kinase inhibitors” (Pharmacia & Upjohn S.p.A., priority 1995, dated 1998):

Columns and labels:
K562 cells = assay: K562 cell growth inhibition assay; assay type: cell-based; settings: human chronic myeloid leukemia K562 cells, 72 h, cell count vs untreated control
Procedure: K562 Cell Growth Inhibition Assay
K562 cells, a human myelogenous leukemia cell line, were seeded into a 24 wells tissue culture plate (Falcon 3047) (10000/well) in the presence of increasing concentrations of the compounds. After 72 h, cells were harvested and were counted using a cell counter (Coulter Counter-ZM). The percent of inhibition was evaluated in respect to the untreated control cells.
The inhibitory activity data for a representative group of compounds according to the present invention, obtained both in the in-vitro p45 v-abl kinase assay and in the in-vivo human chronic myeloid leukemia K562 cell growth inhibition assay described above, are set out in following Table 1.

[1] = target: p45 v-abl tyrosine kinase; assay: in-vitro p45 v-abl kinase assay ((Val^5)-Angiotension II phosphorylation); assay type: biochemical, Abelson murine leukaemia virus; settings: ATP 50 μM, fixed peptide concentration, 40 ng abl-kinase, pH 8.0, 30° C.; read-out: Inhibition of p45 kinase, IC50 v-abl
Procedure: p45 v-abl Kinase Purification
The enzyme used in our test was the p45 v-abl tyrosine kinase which represents the catalytic domain of the Abelson tyrosine kinase (isolated from the Abelson murine leukaemia virus). The p45 v-abl kinase was produced and isolated as described by Wang et al. in J. Biol. Chem. 260, 64 (1985) and by Ferguson et al. in J. Biol. Chem. 260, 3652 (1985) and in Biochem. J. 257, 321 (1989).
(Val^5)-Angiotension II phosphorylation was performed by incubation with 40 ng of purified abl-kinase and (γ-^32 p)-ATP, in 50 μl of buffer containing Tris-HCl 25 mM, pH 8.0, MgCl2 10 mM and dithiothreitol 0.1 mM (kinase buffer). The reaction mixture was incubated for the indicated time at 30° C. and the reaction stopped by adding 50 μl of 5% trichloroacetic acid. After a brief incubation on ice, tubes were centrifuged. The supernatants were spotted on phosphocellulose paper squares (Whatman P-81) and washed extensively in acetic acid. The radioactivity bound to dried phosphocellulose squares was measured in a liquid scintillation counter. IC50 values were calculated from triplicated determinations of each experimental point. Each inhibitor was tested at concentrations ranging from […] in the presence of fixed concentrations of peptide (2 Mm) and ATP (50 μM). […]

`COc1ccc2[nH]cc(C=C3C(=O)Nc4ccc(NC(=O)[C@H](C)NC(=O)[C@@H](N)CCC(=O)O)cc43)c2c1` [FCE 28437, 5-L-glutamyl-L-alanylamino-3-[(5'-methoxy-3'-indolyl)methylene]-2-indolinone] showed an IC50 (K562 cells) of 14.8 µM and an IC50 [1] of 0.5 µM.
With `O=C1Nc2ccc(C(=O)CN3CCCCC3)cc2C1=Cc1c[nH]c2ccccc12` [FCE 28484, 3-(indol-3-ylmethylene)-5-(2-piperidin-1-yl-acetyl)-2-indolinone] the IC50 (K562 cells) was 4.82 µM and the IC50 [1] was 0.78 µM.
